The values below come from patent US7732420B2, “Combinations of transfection lipids exhibiting increased transfection efficiencies” (Northwestern University, priority 2003, dated 2010).

The test system of assay [1] is human umbilical artery endothelial cells (HUAECs). As to the kind of experiment: Transfection of HUAEC with lipoplexes, β-galactosidase expression. It counts as cell-based. The settings on record: lipid used individually. Here is the method: The cells were seeded in 96-well plates at 24 hours before transfection at densities to give about 80% confluence at the time of transfection. Chloroform solutions of EDLPC with EDOPC and EDLPC with EDMPC were mixed at the different ratios and then chloroform was removed under N2 stream and vacuum. The lipid mixtures were hydrated in HBSS at 1 mg/ml to form liposomes. Liposomes and plasmid DNA were diluted in OptiMEM to 80 μg/ml for lipid and to 20 μg/ml for DNA, and liposomes were pipetted into an equal volume of plasmid DNA solution at a 4:1 weight ratio and mixed gently. The resultant DNA (plasmid with β-galactosidase marker gene)—lipid complexes were incubated at room temperature for 15 min and then added to the cells that were either in medium lacking serum (black bars) or medium containing 5% serum (gray bars). The lipoplexes had 35% (lipoid) excess positive over negative (DNA) charge. Cells were assayed for β-galactosidase expression 24 hours after transfection. Data represent the mean±S.D. of a representative experiment performed in quadruplicate. ˜20,000 fluorescence units corresponded approximately to 0.1 milliunit of β-galactosidase.
Cells were treated with DNA-lipid complex for 2 h in the absence (“no serum”) or presence of serum (“serum”) and then washed with HBSS and supplemented with fresh culture medium. Data represent the mean±S.D. of a representative experiment performed in quadruplicate.
Cells were treated with DNA-lipid complex for 2 h in the absence (“no serum”) or presence of 5% normal serum (“normal serum”) or 5% delipidated serum (“delipidated serum”) and then washed with HBSS and supplemented with fresh regular culture medium. Data represent the mean±S.D. of a representative experiment performed in quadruplicate.
Conditions were identical with those described in FIG. 1 except that different lipoid mixtures were used. Ditetradecyldimethyammonium (di C 14 substituted quaternary ammonium) was mixed with dioctadecylammonium (di C 18 quaternary ammonium).

For assay [2], the system named is HUAECs. Description: Intracellular distribution of fluorescent lipid and oligonucleotide of lipoplexes. It counts as cell-based, human. Here is the method:
Lipoplexes were labeled with a fluoresce in derivative of a double-stranded dodecameric oligonucleotide. Cells were incubated with the resulting lipoplexes in the presence of serum for 2 h and imaged under a fluorescence microscope at 2 h later after being washed with HBSS.
In order to determine if this pattern of fusion is also observed within cells (e.g., the mixture is more prone to fuse with endosomal membranes facilitating escape of DNA from endosomal degradation and nuclei entrance) the intracellular distribution of fluorescent lipid and oligonucleotide in EDOPC and EDLPC/EDOPC (60/40) lipoplexes was investigated. […] Lipoplexes were labeled with a fluorescein derivative of a double-stranded dodecameric oligonucleotide. Cells were incubated with the resulting lipoplexes in the presence of serum for 2 h and imaged under a fluorescence microscope after being washed in HBSS. […] Similar images were obtained with fluorescent plasmid DNA, although the fluorescence of the nucleus was less intense.

As to `CCCCCCCCCCCC(=O)OC[C@H](COP(=O)(OCC)OCC[N+](C)(C)C)OC(=O)CCCCCCCCCCC` (some centres unmarked) [EDLPC, 1,2-dilauroyl-sn-glycero-3-ethylphosphocholine], in assay [1], the “transfection activity of the individual lipid” value is reported as “quite weak transfection reagents”.
On the same count and under the same terms, then `CCCCCCCCCCCCCC(=O)OC[C@H](COP(=O)(OCC)OCC[N+](C)(C)C)OC(=O)CCCCCCCCCCCCC` (some centres unmarked) [EDMPC, 1,2-dimyristol-sn-glycero-3-ethylphosphocholine], with “quite weak transfection reagents”.
Regarding `CCCCCCCC/C=C\CCCCCCCC(=O)OC[C@@H](COP(=O)(OCC)OCC[N+](C)(C)C)OC(=O)CCCCCCC/C=C\CCCCCCCC` (some centres unmarked) [EDOPC, 1,2-dioleoyl-sn-glycero-3-ethylphosphocholine], the “intracellular distribution of lipid” value in assay [2] (fluorescent lipid in lipoplexes) is given as “remained in the cytoplasm for at least 20 hours”. For the same molecule, the “intracellular distribution of oligonucleotide” value in assay [2] (fluorescent oligonucleotide in lipoplexes, in the presence of serum) is reported as “remained in the cytoplasm for at least 20 hours”. For the same molecule, the “transfection activity of the individual lipid” value in assay [1] is “quite weak transfection reagents”.
